Results as given in BindingDB's records for doi:10.1016/j.bmcl.2006.04.011 (Ambrilia Biopharma, 2006).

What follows are compounds tested against T1, Dimer of Gag-Pol polyprotein [501-599] (Human immunodeficiency virus 1, UniProt P03367) (assay: Protease Inhibition Assay). Settings: not given.
T1 construct: 501-599
Description: HIV-1 protease activity was measured by a continuous fluorometric assay. The proteolytic activity can be monitored by the increase in fluorescence intensity, and the protease products were analyzed by HPLC. IC50 values were determined from a dose-response curve, whereas Ki values were obtained by fitting initial rates to a tight-binding inhibition equation.

Which IC50 does the source give for `CC(C)CN(C(CO)CCCCNC(=O)[C@@H](NC(=O)OCc1ccccn1)C(c1ccccc1)c1ccccc1)S(=O)(=O)c1ccc(N)cc1` (stereo partly drawn) [pyridin-2-ylmethyl N-[(1S)-1-{[(5R)-5-[(4-aminobenzene)(2-methylpropyl)sulfonamido]-6-hydroxyhexyl]carbamoyl}-2,2-diphenylethyl]carbamate] here?
The IC50 was 0.12 nM.

And the Ki?
Its Ki is 0.4 nM.

Which results are given for `CC(C)CN(C(CO)CCCCNC(=O)[C@@H](NC(=O)OCc1cccnc1)C(c1ccccc1)c1ccccc1)S(=O)(=O)c1ccc(N)cc1` (stereo partly drawn) [pyridin-3-ylmethyl N-[(1S)-1-{[(5R)-5-[(4-aminobenzene)(2-methylpropyl)sulfonamido]-6-hydroxyhexyl]carbamoyl}-2,2-diphenylethyl]carbamate]?
IC50: 0.48 nM; Ki: 0.36 nM

What does the source list for `CC(C)CN(C(CO)CCCCNC(=O)[C@@H](NC(=O)OCc1ccncc1)C(c1ccccc1)c1ccccc1)S(=O)(=O)c1ccc(N)cc1` (stereo partly drawn) [pyridin-4-ylmethyl N-[(1S)-1-{[(5R)-5-[(4-aminobenzene)(2-methylpropyl)sulfonamido]-6-hydroxyhexyl]carbamoyl}-2,2-diphenylethyl]carbamate]?
IC50: 0.39 nM; Ki: 0.02 nM

How did the IC50 turn out when `CC(C)CN(C(CO)CCCCNC(=O)[C@@H](NC(=O)OC(C)(C)C)C(c1ccccc1)c1ccccc1)S(=O)(=O)c1ccc(N)cc1` (stereo partly drawn) [tert-butyl N-[(1S)-1-{[(5R)-5-[(4-aminobenzene)(2-methylpropyl)sulfonamido]-6-hydroxyhexyl]carbamoyl}-2,2-diphenylethyl]carbamate] was run?
The IC50 was 0.4 nM.

And the Ki?
The Ki was 0.5 nM.

Same assay, conditions: pH 4.7; 30 °C

`COC(=O)N[C@@H](CCc1ccccc1)C(=O)NCCCCC(CO)N(CC(C)C)S(=O)(=O)c1ccc(N)cc1` (stereo partly drawn) [methyl N-[(1S)-1-{[(5R)-5-[(4-aminobenzene)(2-methylpropyl)sulfonamido]-6-hydroxyhexyl]carbamoyl}-3-phenylpropyl]carbamate] was tested. Which IC50 did it give?
Its IC50 is 40 nM.

With `COC(=O)N[C@H](C(=O)NCCCCC(CO)N(CC(C)C)S(=O)(=O)c1ccc(N)cc1)c1ccccc1` (stereo partly drawn) [methyl N-[(S)-{[(5R)-5-[(4-aminobenzene)(2-methylpropyl)sulfonamido]-6-hydroxyhexyl]carbamoyl}(phenyl)methyl]carbamate] as the compound, how does the IC50 read?
The IC50 was greater than 300 nM.
